We go through 10 molecules from ChEMBL document CHEMBL1129015, “The design, binding affinity prediction and synthesis of macrocyclic angiotensin II AT1 and AT2 receptor antagonists” (Bioorg Med Chem Lett, 1996).

As usually defined, the pIC50 is −log10 of the IC50, conventionally taken in molar units.

pIC50: −log10 of the molar value.

Test [1] addresses T1, Type-2 angiotensin II receptor (Rattus norvegicus, UniProt P35351).
T1 sequence (P35351 whole entry): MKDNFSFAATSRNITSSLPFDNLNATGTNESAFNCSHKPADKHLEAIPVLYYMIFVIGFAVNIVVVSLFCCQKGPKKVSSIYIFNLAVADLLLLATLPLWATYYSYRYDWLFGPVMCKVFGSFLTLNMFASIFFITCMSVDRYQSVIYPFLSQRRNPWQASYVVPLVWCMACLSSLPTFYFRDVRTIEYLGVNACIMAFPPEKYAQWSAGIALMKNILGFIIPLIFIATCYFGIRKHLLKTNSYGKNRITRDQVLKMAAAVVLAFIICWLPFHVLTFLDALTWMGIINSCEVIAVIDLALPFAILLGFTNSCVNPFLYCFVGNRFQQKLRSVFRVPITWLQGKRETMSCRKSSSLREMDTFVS
Briefly: Inhibition of [125I]-Sar1-Ile8-Ang II binding to rat midbrain Angiotensin II receptor type 2.

Test [2] addresses T2, Type-1 angiotensin II receptor (Oryctolagus cuniculus, UniProt P34976).
T2 sequence (P34976 whole entry): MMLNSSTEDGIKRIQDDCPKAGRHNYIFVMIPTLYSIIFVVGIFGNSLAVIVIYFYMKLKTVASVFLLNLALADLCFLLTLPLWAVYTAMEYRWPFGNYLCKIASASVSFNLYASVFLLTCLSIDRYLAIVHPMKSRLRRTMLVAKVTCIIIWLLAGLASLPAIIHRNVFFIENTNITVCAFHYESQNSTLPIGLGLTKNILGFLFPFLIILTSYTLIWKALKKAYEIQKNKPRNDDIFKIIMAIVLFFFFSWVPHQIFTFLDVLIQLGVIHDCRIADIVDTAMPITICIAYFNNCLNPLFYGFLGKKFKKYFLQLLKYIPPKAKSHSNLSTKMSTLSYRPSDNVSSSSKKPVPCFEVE
Briefly: Inhibition of [125I]-Sar1-Ile8-Ang II binding to Angiotensin II receptor type 1 from rabbit aorta.

On to `CCCc1nc2ccc(NC(=O)NC(C)C)cc2c(=O)n1Cc1ccc(-c2ccccc2S(=O)(=O)NC(=O)c2ccccc2)cc1`, for which the figures for the pIC50 in test [1] and in test [2] were 7.74 and 9.05, respectively.
As to `CCCCCN(C(=O)c1ccccc1)c1ccc2nc(CCC)n(Cc3ccc(-c4ccccc4S(=O)(=O)NC(=O)c4ccccc4)cc3)c(=O)c2c1`, the negative-log IC50 (pIC50) was 6.46 in test [1] and 7.96 in test [2].
For `CCCc1nc2ccc(NC(=O)c3ccccc3)cc2c(=O)n1Cc1ccc(-c2ccccc2-c2nnn[nH]2)cc1`, the pIC50 in test [1] was 5.52; in test [2], 9.40.
As to `CCCc1nc2ccc3cc2c(=O)n1Cc1ccc(cc1)-c1ccccc1S(=O)(=O)NC(=O)CCCCCCCN3C(=O)c1ccccc1`, the pIC50 in test [1] is 7.31; in test [2], 8.89.
As for `CCCc1nc2ccc3cc2c(=O)n1Cc1ccc(cc1)-c1ccccc1S(=O)(=O)NC(=O)CCCCCN3C(=O)OCc1ccccc1`, the figures for the negative logarithm of the IC50 (pIC50) in test [1] and in test [2] were 5.40 and 7.64, respectively.
Regarding `CCCc1ccc2c(c1)-c1ccc(cc1)Cn1c(CCC)nc3ccc(cc3c1=O)N(C(=O)OCc1ccccc1)CCCCCCCC(=O)NS2(=O)=O`, the results for the pIC50 in test [1] and in test [2] were 7.70 and 7.52, respectively.
The like results for `CCCc1nc2ccc(NC(=O)NC(C)C)cc2c(=O)n1Cc1ccc(-c2ccccc2S(=O)(=O)NC(C)=O)cc1` were, in that order, 6.20 and 8.06.
For `CCCc1nc2ccc3cc2c(=O)n1Cc1ccc(cc1)-c1ccccc1S(=O)(=O)NC(=O)CCCCCCCN3C(=O)OCc1ccccc1` the same measures were 7.12 and 8.82.
For the molecule `CCCc1nc2ccc3cc2c(=O)n1Cc1ccc(cc1)-c1ccccc1S(=O)(=O)NC(=O)CCCCCCCN3`, the negative logarithm of the IC50 (pIC50) in test [1] is 6.70; in test [2] it was 9.52.
For `CCCc1ccc2c(c1)-c1ccc(cc1)Cn1c(CCC)nc3ccc(cc3c1=O)NCCCCCCCC(=O)NS2(=O)=O` the same measures were 7.62 and 8.41.
